Data as given in patent publication US5942521A, “Quinolinone derivative and anti-allergic agent with said quinolinone derivative as the active ingredient” (Dainippon Ink and Chemicals, Inc., priority 1996, dated 1999).

How the values were obtained:
[1] = tested on: contact dermatitis induced by picryl chloride; assay: Effect on contact dermatitis induced by picryl chloride in mice; type: in vivo; details: for inhibition in vivo at 20 mg/kg: test compounds, 20 mg/kg p.o. 12 hours after challenge
Method: Effect on contact dermatitis induced by picryl chloride in mice
The delayed type hypersensitization is inhibited by steroid, but can not be effected by known anti-allergic agents. In the following, the method of the pharmacological test will be explained.
Method: Mice, shaved their abdominal skin on previous day, were immunized by applying 0.1 ml of acetone containing 7 mg of picryl chloride to the skin of the abdomen. 7 days after immunization, the thickness of the ear was measured with a dial thickness gauge, then mice were challenged by painting […] of 1% picryl chloride olive oil solution to each side skin of left ear. 24 hours after challenge, the thickness of the left ear was measured again. The compounds of the present invention (test compounds) suspended in 0.5% MC were forcibly administered orally at a dose of 20 mg/kg 12 hours after challenge. As vehicle control group, only 0.5% MC solution was administered orally, and as positive control group, Prednisolone, steroid hormone, was administered orally at a dose of 10 mg/kg and as negative control group, Tranilast was administered orally at a dose of 200 mg/kg.
Increase (%)=(A-B)/B×100 (Equation 2)
A: thickness of the ear at 24 hours after challenge
B: thickness of the ear before challenge
Inhibition (%)=(C-D)/C×100 (Equation 3)
C: The increase (%) in vehicle control group
D: The increase (%) in test compounds group, positive control group

[2] = tested on: passive cutaneous anaphylaxis (PCA) reaction; assay: Effect on homologous passive cutaneous anaphylaxis (PCA) reaction in rats; type: in vivo; details: Rattus norvegicus, po, 0.5 h, male wistar rats; for inhibition in vivo at 100 mg/kg: test compounds, 100 mg/kg p.o., 1 hour before induction of anaphylaxis
Method: Effect on homologous passive cutaneous anaphylaxis (PCA) reaction in rats
This experimental animal model is caused by immediate type allergic reaction, namely, antigen-antibody reaction. In the following, the method of this pharmacological test will be explained.
Method: Male wistar rats (9 weeks old) were intradermally administered 0.05 ml of anti-serum against dinitrophenylated ascaris (DNP-As) into two sites on the shaved dorsal skin. 48 hours later, aminoquinolinone derivatives (test compounds) suspended in 0.5% methylcellulose (MC) were given orally at a dose of 100 mg/kg to the animals. 1 hour after administration of Test compounds, the animals were induced anaphylaxis by injection of saline (1 ml) dissolving 1 mg of trinitrophenylated ascaris (TNP-As) and 5 mg of Evans Blue into the tail vein of the animals. 30 minutes after induction of anaphylaxis, animals were anesthetized by ether and killed by bleeding, and were flayed dorsal skin. The leakage of dye was assessed by measuring the diameter (mean of shortest and longest diameter) of the blue spot on the inside surface of dorsal skin. As vehicle control group, only 0.5% MC solution was administered orally, and as positive control group, Tranilast suspended in 0.5% MC were administered orally at a dose of 200 mg/kg to the animals with the same method as the test compounds groups, The inhibition (%) of PCA reaction was calculated according to equation 1 and the result was shown in Table 1. Each experimental group consisted of 5 rats.
In the conditions of this experiment, it was considered that the compound, which inhibited PCA reaction by over forty (40) percent against that in vehicle control group, was evidently effective for immediate type allergy.
Inhibition (%)=(A-B)/A×100 (Equation 1)
A: leakage of dye in vehicle control group
B: leakage of dye in test compound group or positive control group

[3] = Mus musculus, po, ear thickness at 24 hours, read-out: Inhibition (%) of increase of ear thickness

## CCCCCCOc1c(O)c2ccc(N(C)C)cc2n(CCCC)c1=O [compound 35, 7-dimethylamino-3-hexyloxy-4-hydroxy-1-butyl-2(1H)-quinolinone]
[1]; [3]
  inhibition in vivo at 20 mg/kg: 46%
[2]
  inhibition in vivo at 100 mg/kg: 45%

## CNc1ccc2c(OC)c(O)c(=O)n(C)c2c1 [compound 10, 7-methylamino-3-hydroxy-4-methoxy-1-methyl-2(1H)-quinolinone]
[1]; [3]
  inhibition in vivo at 20 mg/kg: 40%
[2]
  inhibition in vivo at 100 mg/kg: 42%

## Cn1c(=O)c(O)c(O)c2ccc(N)cc21 [compound 8, 7-amino-3,4-dihydroxy-1-methyl-2(1H)-quinolinone]
[1]; [3]
  inhibition in vivo at 20 mg/kg: 41%
[2]
  inhibition in vivo at 100 mg/kg: 48%

## C=CCOc1c(O)c2ccc(NC)cc2n(C)c1=O [compound 29, 7-methylamino-3-(2-propenyloxy)-4-hydroxy-1-methyl-2(1H)-quinolinone]
[1]; [3]
  inhibition in vivo at 20 mg/kg: 48%
[2]
  inhibition in vivo at 100 mg/kg: 42%

## CCCCCCOc1c(O)c(=O)n(C)c2cc(NCCCC)ccc12 [compound 28, 7-butylamino-3-hydroxy-4-hexyloxy-1-methyl-2(1H)-quinolinone]
[1]; [3]
  inhibition in vivo at 20 mg/kg: 37%
[2]
  inhibition in vivo at 100 mg/kg: 42%

## COc1ccc(/C=C/C(=O)Nc2ccccc2C(=O)O)cc1OC [Tranilast, reference compound]
[1]; Mus musculus, po, negative control Tranilast, 200 mg/kg p.o., ear thickness at 24 hours, read-out: Inhibition (%) of increase of ear thickness
  inhibition in vivo at 200 mg/kg: 6%
[1]; Tranilast, 200 mg/kg p.o.
  inhibition of delayed type hypersensitization (in words): did not inhibit delayed type hypersensitization
[2]; positive control Tranilast, 200 mg/kg p.o.
  inhibition in vivo at 200 mg/kg: 54%

## CCCCCCCCOc1c(O)c2ccc(NC(=O)c3ccccc3)cc2n(C)c1=O [compound 49, 7-benzoylamino-3-octyloxy-4-hydroxy-1-methyl-2(1H1)-quinolinone]
[1]; [3]
  inhibition in vivo at 20 mg/kg: 43%
[2]
  inhibition in vivo at 100 mg/kg: 46%

## CCCCCCCCOc1c(O)c(=O)n(C)c2cc(NC)ccc12 [compound 26, 7-methylamino-3-hydroxy-4-octyloxy-1-methyl-2(1H)-quinolinone]
[1]; [3]
  inhibition in vivo at 20 mg/kg: 39%
[2]
  inhibition in vivo at 100 mg/kg: 41%

## CCCCNc1ccc2c(OC)c(O)c(=O)[nH]c2c1 [compound 17, 7-butylamino-3-hydroxy-4-methoxy-2(1H)-quinolinone]
[1]; [3]
  inhibition in vivo at 20 mg/kg: 43%
[2]
  inhibition in vivo at 100 mg/kg: 45%

## CCCCNc1ccc2c(OC)c(OC(C)=O)c(=O)[nH]c2c1 [compound 16, 7-butylamino-3-acetoxy-4-methoxy-2(1H)-quinolinone]
[1]; [3]
  inhibition in vivo at 20 mg/kg: 36%
[2]
  inhibition in vivo at 100 mg/kg: 42%

## CCCCCCCCOc1c(O)c2ccc(NCc3ccccc3)cc2n(C)c1=O [compound 47, 7-benzylamino-3-octyloxy-4-hydroxy-1-methyl-2(1H)-quinolinone]
[1]; [3]
  inhibition in vivo at 20 mg/kg: 48%
[2]
  inhibition in vivo at 100 mg/kg: 40%

## CCCCCCCCOc1c(O)c2ccc(NC(=O)/C=C/c3ccc(OC(C)=O)c(OC)c3)cc2n(C)c1=O [compound 44, 7-(4-acetoxy-3-methoxycinnamoylamino)-3-octyloxy-4-hydroxy-1-methyl-2(1H)-quinolinone]
[1]; [3]
  inhibition in vivo at 20 mg/kg: 53%
[2]
  inhibition in vivo at 100 mg/kg: 50%

## CCCCCCOc1c(O)c2ccc(N(C)C)cc2n(C)c1=O [compound 25, 7-dimethylamino-3-hexyloxy-4-hydroxy-1-methyl-2(1H)-quinolinone]
[1]; [3]
  inhibition in vivo at 20 mg/kg: 48%
[2]
  inhibition in vivo at 100 mg/kg: 47%

## CCCCCCCCOc1c(O)c2ccc(NC(C)=O)cc2n(C)c1=O [compound 39, 7-acetylamino-3-octyloxy-4-hydroxy-1-methyl-2(1H)-quinolinone]
[1]; [3]
  inhibition in vivo at 20 mg/kg: 48%
[2]
  inhibition in vivo at 100 mg/kg: 50%

## CCCCCCOc1c(O)c(=O)n(C)c2cc(N)ccc12 [compound 23, 7-amino-3-hydroxy-4-hexyloxy-1-methyl-2(1H)-quinolinone]
[1]; [3]
  inhibition in vivo at 20 mg/kg: 41%
[2]
  inhibition in vivo at 100 mg/kg: 44%

## COc1c(OC(C)=O)c(=O)[nH]c2cc(N)ccc12 [compound 15, 7-amino-3-acetoxy-4-methoxy-2(1H)-quinolinone]
[1]; [3]
  inhibition in vivo at 20 mg/kg: 40%
[2]
  inhibition in vivo at 100 mg/kg: 41%

## CCCCCCCCOc1c(O)c2ccc(NC(=O)/C=C/c3ccc(O)c(OC)c3)cc2n(C)c1=O [compound 45, 7-(4-hydroxy-3-methoxycinnamoylamino)-3-octyloxy-4-hydroxy-1-methyl-2(1H)-quinolinone]
[1]; [3]
  inhibition in vivo at 20 mg/kg: 44%
[2]
  inhibition in vivo at 100 mg/kg: 41%

## CCCCCCCCOc1c(O)c2ccc(N)cc2n(C)c1=O [compound 22, 7-amino-3-octyloxy-4-hydroxy-1-methyl-2(1H)-quinolinone]
[1]; [3]
  inhibition in vivo at 20 mg/kg: 55%
[2]
  inhibition in vivo at 100 mg/kg: 57%

## COc1c(O)c2ccc(N)cc2n(C)c1=O [compound 19, 7-amino-3-methoxy-4-hydroxy-1-methyl-2(1H)-quinolinone]
[1]; [3]
  inhibition in vivo at 20 mg/kg: 45%
[2]
  inhibition in vivo at 100 mg/kg: 44%

## CNc1ccc2c(O)c(OCC=C(C)C)c(=O)n(C)c2c1 [compound 30, 7-methylamino-3-prenyloxy-4-hydroxy-1-methyl-2(1H)-quinolinone]
[1]; [3]
  inhibition in vivo at 20 mg/kg: 52%
[2]
  inhibition in vivo at 100 mg/kg: 44%

## COc1c(OC(C)=O)c(=O)n(C)c2cc(N)ccc12 [compound 6, 7-amino-3-acetoxy-4-methoxy-1-methyl-2(1H)-quinolinone]
[1]; [3]
  inhibition in vivo at 20 mg/kg: 43%
[2]
  inhibition in vivo at 100 mg/kg: 46%

## CCCCn1c(=O)c(O)c(OC)c2ccc(N(C)C)cc21 [compound 36, 7-dimethylamino-3-hydroxy-4-methoxy-1-butyl-2(1H)-quinolinone]
[1]; [3]
  inhibition in vivo at 20 mg/kg: 40%
[2]
  inhibition in vivo at 100 mg/kg: 41%

## CNc1ccc2c(OC)c(OC(C)=O)c(=O)n(C)c2c1 [compound 9]
[1]; [3]
  inhibition in vivo at 20 mg/kg: 43%
[2]
  inhibition in vivo at 100 mg/kg: 45%

## CCCCn1c(=O)c(OCC=C(C)C)c(O)c2ccc(NC)cc21 [compound 37, 7-methylamino-3-prenyloxy-4-hydroxy-1-butyl-2(1H)-quinolinone]
[1]; [3]
  inhibition in vivo at 20 mg/kg: 45%
[2]
  inhibition in vivo at 100 mg/kg: 42%

## CCCCOc1c(O)c(=O)n(CCC)c2cc(N)ccc12 [compound 33, 7-amino-3-hydroxy-4-butyloxy-1-propyl-2(1H)-quinolinone]
[1]; [3]
  inhibition in vivo at 20 mg/kg: 40%
[2]
  inhibition in vivo at 100 mg/kg: 40%

## CCCCCCOc1c(O)c2ccc(N)cc2n(CC)c1=O [compound 32, 7-amino-3-hexyloxy-4-hydroxy-1-ethyl-2(1H)-quinolinone]
[1]; [3]
  inhibition in vivo at 20 mg/kg: 48%
[2]
  inhibition in vivo at 100 mg/kg: 44%

## CCCCCCOc1c(O)c2ccc(NC(=O)/C=C/c3cc(OC)c(O)c(OC)c3)cc2n(C)c1=O [compound 43, 7-(4-hydroxy-3,5-dimethoxycinnamoylamino)-3-hexyloxy-4-hydroxy-1-methyl-2(1H)-quinolinone]
[1]; [3]
  inhibition in vivo at 20 mg/kg: 53%
[2]
  inhibition in vivo at 100 mg/kg: 49%

## CNc1ccc2c(O)c(OC/C=C(\C)CCC=C(C)C)c(=O)n(C)c2c1 [compound 31, 7-methylamino-3-geranyloxy-4-hydroxy-1-methyl-2(1H)-quinolinone]
[1]; [3]
  inhibition in vivo at 20 mg/kg: 45%
[2]
  inhibition in vivo at 100 mg/kg: 46%

## COc1c(O)c(=O)[nH]c2cc(N)ccc12 [compound 14, 7-amino-3-hydroxy-4-methoxy-2(1H)-quinolinone]
[1]; [3]
  inhibition in vivo at 20 mg/kg: 38%
[2]
  inhibition in vivo at 100 mg/kg: 44%

## CCOc1c(OC(C)=O)c(=O)n(C)c2cc(N)ccc12 [compound 20, 7-amino-3-acetoxy-4-ethoxy-1-methyl-2(1H)-quinolinone]
[1]; [3]
  inhibition in vivo at 20 mg/kg: 43%
[2]
  inhibition in vivo at 100 mg/kg: 41%

## CCCCCCCCOc1c(O)c2ccc(NCC=C(C)C)cc2n(C)c1=O [compound 48, 7-prenylamino-3-octyloxy-4-hydroxy-1-methyl-2(1H)-quinolinone]
[1]; [3]
  inhibition in vivo at 20 mg/kg: 53%
[2]
  inhibition in vivo at 100 mg/kg: 50%

## CCCCCCCCCCOc1c(O)c(=O)n(CCC)c2cc(N)ccc12 [compound 34, 7-amino-3-hydroxy-4-decyloxy-1-propyl-2(1H)-quinolinone]
[1]; [3]
  inhibition in vivo at 20 mg/kg: 37%
[2]
  inhibition in vivo at 100 mg/kg: 40%
